From patent US20100041722A1, “ORGANIC COMPOUNDS” (priority 2006, published 2010) come the findings set out here.

Experiment [1] deals with T1, aldosterone synthase (CYP11B2) (Homo sapiens, UniProt P19099).
T1 construct: host or cells: NCI-H295R human adrenocortical carcinoma cells
T1 sequence (P19099 25-503): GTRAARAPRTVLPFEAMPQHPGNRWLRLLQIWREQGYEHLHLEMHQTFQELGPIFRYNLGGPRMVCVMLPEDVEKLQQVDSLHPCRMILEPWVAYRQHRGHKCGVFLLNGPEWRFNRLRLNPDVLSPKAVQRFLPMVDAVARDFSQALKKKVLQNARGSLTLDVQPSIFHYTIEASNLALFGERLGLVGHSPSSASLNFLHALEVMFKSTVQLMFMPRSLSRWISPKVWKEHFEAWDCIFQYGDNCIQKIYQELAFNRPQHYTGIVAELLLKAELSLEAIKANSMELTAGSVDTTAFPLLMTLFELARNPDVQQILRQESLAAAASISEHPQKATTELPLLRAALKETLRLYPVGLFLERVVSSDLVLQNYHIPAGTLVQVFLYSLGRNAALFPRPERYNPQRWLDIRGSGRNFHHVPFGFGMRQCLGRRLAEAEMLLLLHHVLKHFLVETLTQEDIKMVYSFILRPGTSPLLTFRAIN
The experiment in a line: in vitro aldosterone synthase inhibition: aldosterone production in Ang II-stimulated NCI-H295R cells. The experiment is classed as cell-based. Particulars: Table 1, read-out: AS IC50. From the text:
Human adrenocortical carcinoma NCl-H295R cell line is obtained from American Type Culture Collection (Manassas, Va.). Insulin/transferrin/selenium (ITS)-A supplement (100×), DMEM/F-12, antibiotic/antimycotic (100×), and fetal calf serum (FCS) are purchased from Gibco (Grand Island, N.Y.). Anti-mouse PVT scintillation proximity assay (SPA) beads and NBS 96-well plates are obtained from Amersham (Piscataway, N.J.) and Corning (Acton, Mass.), respectively. Solid black 96-well flat bottom plates are purchased from Costar (Corning, N.Y.). Aldosterone and angiotensin (Ang II) are purchased from Sigma (St. Louis, Mo.). D-[1,2,6,7-^3H(N)]aldosterone was acquired from PerkinElmer (Boston, Mass.). Nu-serum was a product of BD Biosciences (Franklin Lakes, N.J.). The NADPH regenerating system, dibenzylfluorescein (DBF), and human aromatase supersomes® are obtained from Gentest (Woburn, Mass.).
For in vitro measurement of aldosterone activity, human adrenocortical carcinoma NCl-H295R cells are seeded in NBS 96-well plates at a density of 25,000 cells/well in 100 μl of a growth medium containing DMEM/F12 supplemented with 10% FCS, 2.5% Nu-serum, 1 μg ITS/ml, and 1× antibiotic/antimycotic. The medium is changed after culturing for 3 days at 37° C. under an atmosphere of 5% CO2/95% air. On the following day, cells are rinsed with 100 μl of DMEM/F12 and incubated with 100 μl of treatment medium containing 1 μM Ang II and a compound at different concentrations in quadruplicate wells at 37° C. for 24 hr. At the end of incubation, 50 μl of medium is withdrawn from each well for measurement of aldosterone production by an RIA using mouse anti-aldosterone monoclonal antibodies.
Measurement of aldosterone activity can also be performed using a 96-well plate format. Each test sample is incubated with 0.02 μCi of D-[1,2,6,7-^3H(N)]aldosterone and 0.3 μg of anti-aldosterone antibody in phosphate-buffered saline (PBS) containing 0.1% Triton X-100, 0.1% bovine serum albumin; and 12% glycerol in a total volume of 200 μl at room temperature for 1 hr. Anti-mouse PVT SPA beads (50 μl) are then added to each well and incubated overnight at room temperature prior to counting in a Microbeta plate counter. The amount of aldosterone in each sample is calculated by comparing with a standard curve generated using known quantities of the hormone.
Full concentration-response curves of the test compound are performed at least 3 times. The IC50 values are derived using a non-linear least squares curve-fitting program from Microsoft XLfit.

Experiment [2] addresses T2, CYP11B1 (steroid 11β-hydroxylase) (Homo sapiens, UniProt P15538).
T2 construct: Thus, the NCl-H295R cells have CYP11B1 (steroid 11 p-hydroxylase); host or cells: NCI-H295R human adrenocortical carcinoma cells
T2 sequence (P15538 25-503): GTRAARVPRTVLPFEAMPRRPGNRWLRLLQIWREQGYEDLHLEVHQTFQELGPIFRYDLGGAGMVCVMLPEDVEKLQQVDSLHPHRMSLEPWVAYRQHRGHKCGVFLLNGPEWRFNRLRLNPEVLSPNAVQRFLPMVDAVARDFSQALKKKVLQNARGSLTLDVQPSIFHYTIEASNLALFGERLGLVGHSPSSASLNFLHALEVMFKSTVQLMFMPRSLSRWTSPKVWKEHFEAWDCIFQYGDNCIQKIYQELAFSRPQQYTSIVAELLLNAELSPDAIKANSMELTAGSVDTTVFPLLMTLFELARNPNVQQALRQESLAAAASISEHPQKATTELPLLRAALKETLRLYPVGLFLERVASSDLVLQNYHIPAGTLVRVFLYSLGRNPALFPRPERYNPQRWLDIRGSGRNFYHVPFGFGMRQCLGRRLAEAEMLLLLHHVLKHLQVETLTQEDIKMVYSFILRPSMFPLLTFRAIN
The experiment in a line: in vitro CYP11B1 inhibition: steroid release from NCI-H295R cells. Type of experiment: cell-based. Particulars: Table 1. From the text: The in vitro inhibitory activities for CYP11B1 can be determined by the following assay.
The cell line NCl-H295R was originally isolated from an adrenocortical carcinoma and has been characterized in the literature through the stimulable secretion of steroid hormones and the presence of the enymes essential for steroidogenesis. Thus, the NCl-H295R cells have CYP11B1 (steroid 11 p-hydroxylase). The cells show the physiological property of zonally undifferentiated human foetal adrenocortical cells which, however, have the capacity to produce the steroid hormones which are formed in the three, phenotypically distinguishable zones in the adult adrenal cortex. […]
The excretion of aldosterone, cortisol, corticosterone and estradiol/estrone into the culture medium can be detected and quantified by commercially available, specific monoclonal antibodies in radioimmunoassays in accordance with the manufacturer's instructions.
Inhibition of the release of certain steroids can be used as a measure of the respective enzyme inhibition by the added test compounds. The dose-dependent inhibition of enzymic activity by a compound is calculated by means of an inhibition plot which is characterized by an IC50.
The IC50 values for active test compounds are ascertained by a simple linear regression analysis in order to construct inhibition plots without data weighting. The inhibition plot is calculated by fting a 4-parameter logistic function to the raw data points using the least squares method. The equation of the 4-parameter logistic function is calculated as follows: Y=(d−a)/((1+(x/c)b))+a I where: a=minimum data level b=gradient I c=ICED d=maximum data level x=inhibitor concentration.

One may read the IC50 as the concentration that inhibits the measured activity by half. As for `COC(=O)c1cncn1C1COc2ccccc2OC1` [LDS237, 3-(3,4-Dihydro-2H-benzo[b][1,4]dioxepin-3-yl)-3H-imidazole-4-carboxylic acid methyl ester], in experiment [1], the IC50 came out at 0.214 µM. For the compound `COC(=O)c1cn(C2Cc3ccccc3C2)cn1` [LDG688, 1-Indan-2-yl-1H-imidazole-4-carboxylic acid methyl ester], the IC50 in experiment [1] worked out at 0.009 µM; in experiment [2], 0.107 µM.

As for `Cc1noc(-c2cncn2C2Cc3ccccc3C2)n1` [LDK260, 5-(3-Indan-2-yl-3H-imidazol-4-yl)-3-methyl-[1,2,4]oxadiazole], the IC50 in experiment [1] worked out at 0.095 µM; in experiment [2], 0.725 µM. Turning to `ON=Cc1cncn1C1Cc2ccccc2C1` [LDK909, 3-Indan-2-yl-3H-imidazole-4-carbaldehyde oxime], in experiment [1], the IC50 was 0.378 µM.

On to `COC(=O)c1cncn1C1CCc2ccccc2C1` (centres unmarked) [LDI154, 3-(1,2,3,4-Tetrahydro-naphthalen-2-yl)-3H-imidazole-4-carboxylic acid methyl ester], for which the values for the IC50 in experiment [1] and in experiment [2] were 0.006 µM and 0.042 µM, respectively.
